Test results reported in patent US12606541B2, “PPARg modulators and methods of use” (Eisai R&D Management Co., Ltd., priority 2020, dated 2026).
Where two headings read alike, the source gives them in different places.

What was measured:
His6-TEV-PPARγ-(234-505) = target: T1, His6-TEV-PPARγ-(234-505) (Homo sapiens, UniProt P37231); experiment: TR-FRET Assay to Measure Co-R Peptide Recruitment to PPARγ; type: biochemical; details: Co-R peptide (SMRT-ID2) recruitment; top final concentration 20 μM; read-out: TR-FRET i-Ag; AC50
T1 construct: The His6-TEV-PPARγ-(234-505) protein for assay was expressed and purified; TEV cleavage site (N); made in house
T1 sequence (P37231 234-505): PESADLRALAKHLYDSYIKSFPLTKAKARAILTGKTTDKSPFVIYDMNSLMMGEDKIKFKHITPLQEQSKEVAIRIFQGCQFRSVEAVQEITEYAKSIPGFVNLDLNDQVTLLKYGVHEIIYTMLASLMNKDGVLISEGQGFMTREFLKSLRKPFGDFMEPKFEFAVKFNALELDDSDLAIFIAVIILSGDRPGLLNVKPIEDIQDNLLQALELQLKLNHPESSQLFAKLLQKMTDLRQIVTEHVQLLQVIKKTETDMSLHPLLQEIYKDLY
Procedure, shortened: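 Corepressor recruitment is measured by adding terbium-labeled anti-His antibody and FITC SMRT-ID2 peptide, at 5 and 200 nM final, after a 20-minute room-temperature protein–compound incubation. After one further hour, signal is converted to percent response between DMSO and 500 nM T0070907 wells.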

UM-UC-9 engineered cells = experiment: Cell proliferation / short-term viability assay, CellTiter-Glo 144 h; type: cell-based, human; details: read-out: CTGlo 144 h UMUC9.5, G150
Procedure: Cell Seeding for Proliferation Assay
UM-UC-9 engineered cells were cultured in Dulbecco's Modified Eagle Medium (DMEM) supplemented with 10% FBS, 25 mM glucose (high glucose), 4.0 mM L-glutamine, 2.0 mM GlutaMAX™, 1.0 mM pyruvate, 1.0% non-essential amino acids (NEAA) in a 95% humidified incubator at 37° C. with 5% CO2. Cell banks of UM-UC-9 engineered assay-ready cells (ARCs) were prepared from a very active growth stage. Vials of ARCs containing approximately 5×10^6 cells per vial were stored in liquid nitrogen vapor phase cryostorage until use.
For making assay plates, ARCs were recovered from cryostorage, strained in a […] cell strainer, verified for cell viability >90% and counted using a cell counter (Cellometer Auto 1000, Nexelom). Each cell line was seeded into 384-well plates (50 μl/well) using DMEM medium at a density previously determined to be in log growth phase 7 days post-seeding (500 cells/well) using a bulk reagent dispenser (Multidrop™ Combi, Thermo Scientific) with a large-bore plastic-tip cassette pre-sanitized with 70% ethanol. One plate of cells was designated as the pretreatment time-zero (T0) control. Freshly seeded plates were allowed to sit lidded for 30 minutes within a biosafety cabinet for cells to settle distributed within the plate wells uniformly and then placed into an automated incubator (STX110, Liconic) at 37° C., 5% CO2, and 95% relative humidity.
Preparation of Test Compound in Assay-Ready Plate
Compounds were stored in a low-temperature sample archive as 10 mM dimethyl sulfoxide (DMSO) solutions at −20° C. under reduced humidity (−45° C. dew point) and protected from light. All samples in the automated archive are stored in 2D barcoded polypropylene tubes, tracked through a laboratory information management system (LIMS), and have been verified for identity and purity by NMR (Chemistry, H3 Biomedicine) and by LCMS (Analytical Chemistry, H3 Biomedicine) at the time of sample registration. Identity by mass matching and purity are again verified at the time of sample request fulfillment by redundant LCMS methods (acidic and basic separation protocols; Analytical Chemistry, H3 Biomedicine). Samples retrieved from low-temperature archive storage were solubilized by heated sonication (Bransonic® Ultrasonic Bath, Branson), transferred (Microlab Starlet, Hamilton) and serially-diluted (Viaflo Assist, Integra) by low-volume liquid handlers, and tracked in LIMS by automation log files to create a ID barcoded master dose-response plate (MDR) to serve as a standard source for all assay-ready plates (ARP) used within an experiment. ARPs prepared by acoustic transfer (ATS-100, EDC) of nL volumes from the MDR source were heat-sealed (PlateLoc, Agilent) and stored at −20° C. prior to use (<7 days from production). Tracking of liquid transfers via acoustic dispenser log files were used to update the LIMS system for all ARP plate maps.
Measurement of Pretreatment Control Cells and Sample Anti-Proliferative Effects on Treated Cells
On day 0 (pretreatment cells) or day 7 (treated cells), a cell proliferation assay was performed using an automated robotic assay platform (ACell, High-Res Biosolutions). Cell ARP's were removed from incubation, their plate lid discarded, and using a bulk reagent dispenser (Multidrop™ Combi, Thermo Scientific with a small-bore metal-tip cassette) 25 μL (1/2 volume) of Cell Titer-Glo® 2.0 Cell Viability Assay reagent (Promega) was added to wells of columns 1-23 (column 24 will be used as plate background or positive control). Cell ARP's were incubated at room temperature in an automation hotel position for a total of 1.0 minute while the next plate was delivered to the bulk reagent dispenser and then lid-free cell ARP's were returned to incubate at 37° C. for 2.5 hours. […]

Row | Compound | AC50 (His6-TEV-PPARγ-(234-505)) [nM] | IC50 (UM-UC-9 engineered cells; Homo sapiens, UM-UC-9, 144 h) [nM] | IC50 (UM-UC-9 engineered cells) [nM] | IC50 (UM-UC-9 engineered cells; listed as 101b) [nM]
1 | COc1cc(-c2cc(C(=O)N3CC[C@H](C(=O)NCc4sc(C)nc4C(F)(F)F)CC34CC4)[nH]n2)c(F)cn1 [Example 517, (S)-4-(3-(5-fluoro-2-methoxypyridin-4-yl)-1H-pyrazole-5-carbonyl)-N-((2-methyl-4-(trifluoromethyl)thiazol-5-yl)methyl)-4-azaspiro[2.5]octane-7-carboxamide] | 7.9 | 20.3 |  | 
2 | COc1cc(-c2nc(C(=O)N3CCC(C(=O)NCc4cccc(Cl)c4)CC3)n[nH]2)c(F)cn1 [Example 166, N-[(3-chlorophenyl)methyl]-1-[5-(5-fluoro-2-methoxypyridin-4-yl)-1H-1,2,4-triazole-3-carbonyl]piperidine-4-carboxamide] | 300 | > 10000 |  | 
3 | COc1cc(-c2cc(C(=O)N3CCC(C(=O)NCc4ccc(OC(F)F)cc4)CC3)n[nH]2)c(Cl)cn1 [Example 151, 1-(5-(5-chloro-2-methoxypyridin-4-yl)-1H-pyrazole-3-carbonyl)-N-(4-(difluoromethoxy)benzyl)piperidine-4-carboxamide] | 48.1 | 539 |  | 
4 | COc1cc(-c2cc(C(=O)N3CCC(C(=O)NCc4ccc5[nH]ccc5c4)CC3)n[nH]2)c(Cl)cn1 [Example 122, N-((1H-indol-5-yl)methyl)-1-(5-(5-chloro-2-methoxypyridin-4-yl)-1H-pyrazole-3-carbonyl)piperidine-4-carboxamide] | 11 | 66.1 |  | 
5 | COc1cc(-c2cc(C(=O)N3CC[C@H](C(=O)NC4CCC(O)(C(F)(F)F)C(O)C4)CC34CC4)n[nH]2)c(F)cn1 (single isomer, unassigned) [Example 474-F] | 71.6 |  | 2540 | 
6 | COc1cc(-c2cc(C(=O)N3CC[C@H](C(=O)NC4CCC5CCCN5C4)CC34CC4)n[nH]2)c(F)cn1 (single isomer, unassigned) [Example 376-C] | 19.2 |  | 23.6 | 
7 | COc1cc(-c2cc(C(=O)N3CC[C@@H](C(=O)NCc4ncc(Cl)cn4)CC34CC4)n[nH]2)c(F)cn1 [Example 413, (R)—N-((5-chloropyrimidin-2-yl)methyl)-4-(5-(5-fluoro-2-methoxypyridin-4-yl)-1H-pyrazole-3-carbonyl)-4-azaspiro[2.5]octane-7-carboxamide] | 15.2 | 55 |  | 
8 | (2S,4R)-1-(5-(5-fluoro-2-methoxypyridin-4-yl)-1H-pyrazole-3-carbonyl)-N-((1r,4R)-4-hydroxy-4-(trifluoromethyl)cyclohexyl)-2-(trifluoromethyl)piperidine-4-carboxamide and (2S,4S)-1-(5-(5-fluoro-2-methoxypyridin-4-yl)-1H-pyrazole-3-carbonyl)-N-((1r,4S)-4-hydroxy-4-(trifluoromethyl)cyclohexyl)-2-(trifluoromethyl)piperidine-4-carboxamide [Example 367] | 22 |  | 12 | 
9 | COc1cc(-c2cc(C(=O)N3CCC(C(=O)NCC4CCn5c(C)nnc5C4)CC34CC4)[nH]n2)c(F)cn1 (mixture of isomers) [Example 346, (S)-4-(3-(5-fluoro-2-methoxypyridin-4-yl)-1H-pyrazole-5-carbonyl)-NVR)-3-methyl-5,6,7,8-tetrahydro-[1,2,4]triazolo[4,3-a]pyridin-7-yl)methyl)-4-azaspiro[2.5]octane-7-carboxamide and (8)-4-(3-(5-fluoro-2-methoxypyridin-4-yl)-1H-pyrazole-5-carbonyl)-N—(((S)-3-methyl-5,6,7,8-tetrahydro-[1,2,4]triazolo[4,3-a]pyridin-7-yl)methyl)-4-azaspiro[2.5]octane-7-carboxamide] | 371 |  | > 10000 | 
10 | COc1cc(-c2cc(C(=O)N3CC[C@H](C(=O)NCc4[nH]cnc4C(F)(F)F)CC34CC4)[nH]n2)c(F)cn1 [Example 503, (S)-4-(3-(5-fluoro-2-methoxypyridin-4-yl)-1H-pyrazole-5-carbonyl)-N-((4-(trifluoromethyl)-1H-imidazol-5-yl)methyl)-4-azaspiro[2.5]octane-7-carboxamide] | 8.1 | 146 |  | 
11 | COc1cc(-c2cc(C(=O)N3CC[C@H](C(=O)NC4CN(C5CCOC5)C4)CC34CC4)n[nH]2)c(F)cn1 (single isomer, unassigned) [Example 433-B] | 61.1 |  | 249 | 
12 | COc1cc(-c2cc(C(=O)N3CC[C@H](C(=O)NCC45COC(C(F)(F)F)(C4)C5)CC34CC4)n[nH]2)c(F)cn1 [Example 443, (S)-4-(5-(5-fluoro-2-methoxypyridin-4-yl)-1H-pyrazole-3-carbonyl)-N-((1-(trifluoromethyl)-2-oxabicyclo[2.1.1]hexan-4-yl)methyl)-4-azaspiro[2.5]octane-7-carboxamide] | 21.4 | 40.3 |  | 
13 | COc1cc(-c2cc(C(=O)N3[C@@H]4CC[C@H]3C[C@H](C(=O)N[C@H]3CC[C@@](O)(C(F)(F)F)CC3)C4)n[nH]2)c(F)cn1 (single isomer, unassigned) [Example 170-A] | 4.7 | 11.8 |  | 
14 | COc1cc(-c2cc(C(=O)N3CCC(C(=O)NCc4ccc(Cl)cn4)CC3)n[nH]2)c(Cl)cn1 [Example 120, 1-(5-(5-chloro-2-methoxypyridin-4-yl)-1H-pyrazole-3-carbonyl)-N-((5-chloropyridin-2-yl)methyl)piperidine-4-carboxamide] | 227 | 766 |  | 
15 | COc1cc(-c2cc(C(=O)N3CCC(C(=O)NC4CCC(C)CC4)CC3)n[nH]2)c(Cl)cn1 (single isomer, unassigned) [Example 101-B] | 9.2 |  |  | 84
16 | COc1cc(-c2cc(C(=O)N3CCC(C(=O)NC4CCN(c5ccccc5)C4)CC3)n[nH]2)c(Cl)cn1 (centres unmarked) [Example 117, 1-[5-(5-chloro-2-methoxypyridin-4-yl)-1H-pyrazole-3-carbonyl]-N-(1-phenylpyrrolidin-3-yl)piperidine-4-carboxamide] | 56.2 | 293 |  | 
17 | COc1cc(-c2cc(C(=O)N3CC[C@H](C(=O)Nc4cnn5ccc(C(C)O)nc45)CC34CC4)n[nH]2)c(F)cn1 (single isomer, unassigned) [Example 445-B] | 11 |  | 116 | 
18 | (S)-4-(5-(5-fluoro-2-methoxypyridin-4-yl)-1H-pyrazole-3-carbonyl)-N—((S)-1-(oxetan-3-yl)piperidin-3-yl)-4-azaspiro[2.5]octane-7-carboxamide and (S)-4-(5-(5-fluoro-2-methoxypyridin-4-yl)-1H-pyrazole-3-carbonyl)-N—((R)-1-(oxetan-3-yl)piperidin-3-yl)-4-azaspiro[2.5]octane-7-carboxamide [Example 421] | 182 |  | 365 | 
19 | COc1cc(-c2cc(C(=O)N3CC[C@H](C(=O)NC4CCN(C5COC56CCC6)C4)CC34CC4)n[nH]2)c(F)cn1 (single isomer, unassigned) [Example 464-D] | 7.6 | 25.2 |  | 
